Source: patent publication US20100087407A1, “USE OF AROMATASE INHIBITORS” (priority 2006, published 2010)

Key:
[1] = postmenopausal breast cancer; cited from earlier work
[2] = tested on: endometrium; experiment: Examples 1-3: endometrial thinning with loading dose and maintenance dose; type: in vivo, women; conditions: loading dose on first day, then maintenance dose for 3-6 days, any time of cycle
Experimental: Five different groups of pre-menopausal women are treated based on where there are in the menstrual cycle. Starting days (i.e., the first day of dosing) for the five groups are on Cycle Days 2-5, 6-9, 10-13, 14-17, and 18-21 for Groups 1-5, respectively.
A thin endometrium is defined as having a double-wall thickness not greater than 4 mm on transvaginal ultrasound. […] The following table summarizes the dose day and evaluation times.

[3] = tested on: endometrium; conditions: small randomized study of progestogens; cited from earlier work
[4] = tested on: endometrium; conditions: prior to hysteroscopic surgery; cited from earlier work

Compound	effect on endometrial thickness [3]	further results
CCC1(c2ccc(N)cc2)CCC(=O)NC1=O (stereo not drawn) [aminoglutethimide]		patients stopping treatment because of side effects (lethargy, rashes, nausea, fever) [1]: 8-15%
CC(C)(C#N)c1cc(Cn2cncn2)cc(C(C)(C)C#N)c1 [anastrozole]		endometrial thinning prior to ablation [2]: able to maintain a thin endometrium or to induce adequate thinning
CC(=O)O[C@]1(C(C)=O)CC[C@H]2[C@@H]3C=C(Cl)C4=CC(=O)[C@@H]5C[C@@H]5[C@]4(C)[C@H]3CC[C@@]21C [cyproterone acetate]	significant reduction	
C#C[C@]1(O)CC[C@H]2[C@@H]3CCC4=Cc5oncc5C[C@]4(C)[C@H]3CC[C@@]21C [danazol]		endometrial thinning [4]: satisfactory results
CC(=O)O[C@]1(C(C)=O)CC[C@H]2[C@@H]3C[C@H](C)C4=CC(=O)CC[C@]4(C)[C@H]3CC[C@@]21C [medroxyprogesterone acetate]	no effect	
C#C[C@]1(O)CC[C@H]2[C@@H]3CCC4=CC(=O)CC[C@@H]4[C@H]3CC[C@@]21C [norethisterone]	no effect	
